Experiments:
[1] = target: Ephrin type-A receptor 3 (Homo sapiens) (UniProt P29320); test: Inhibition of recombinant human EPHA3 (578 to end residues) at 1 uM using poly(Glu,Tyr) 4:1 as substrate after 40 mins in presence of [gamma-33P]ATP by scintillation counting method
[2] = test system: Hepatocyte growth factor receptor (Homo sapiens), P08581 [Y1248H]; test: Inhibition of recombinant human Met Y1248H mutant (974 to end residues) at 1 uM using KKKGQEEEYVFIE as substrate after 40 mins in presence of [gamma-33P]ATP by scintillation counting method
[3] = target: Mitogen-activated protein kinase kinase kinase kinase 4 (Homo sapiens) (UniProt O95819); test: Inhibition of recombinant human MAP4K4 (1 to 328 residues) at 1 uM using RLGRDKYKTLRQIRQ as substrate after 40 mins in presence of [gamma-33P]ATP by scintillation counting method
[4] = target: Serine/threonine-protein kinase TBK1 (Homo sapiens) (UniProt Q9UHD2); test: Inhibition of recombinant full-length human TBK1 at 1 uM using KRRRALS(p)VASLPGL as substrate after 40 mins in presence of [gamma-33P]ATP by scintillation counting method
[5] = target: Inhibitor of nuclear factor kappa-B kinase subunit epsilon (Homo sapiens) (UniProt Q14164); test: Inhibition of recombinant full-length human IKKepsilon at 1 uM using casein as substrate after 40 mins in presence of [gamma-33P]ATP by scintillation counting method
[6] = target: G protein-coupled receptor kinase 5 (Homo sapiens) (UniProt P34947); test: Inhibition of recombinant full-length human GRK5 at 1 uM using casein as substrate after 40 mins in presence of [gamma-33P]ATP by scintillation counting method
[7] = target: MAP kinase-activated protein kinase 3 (Homo sapiens) (UniProt Q16644); test: Inhibition of recombinant human MAPKAPK3 (2 to end residues) at 1 uM using KKLNRTLSVA as substrate after 40 mins in presence of [gamma-33P]ATP by scintillation counting method
[8] = target: Bone morphogenetic protein receptor type-2 (Homo sapiens) (UniProt Q13873); test: Inhibition of recombinant human BMPR2 (172 to 734 residues) at 1 uM using myelin basic protein as substrate after 120 mins in presence of [gamma-33P]ATP by scintillation counting method
[9] = target: Serine/threonine-protein kinase Nek7 (Homo sapiens) (UniProt Q8TDX7); test: Inhibition of recombinant human NEK7 (2 to end residues) at 1 uM using FLAKSFGSPNRAYKK as substrate after 40 mins in presence of [gamma-33P]ATP by scintillation counting method
[10] = target: Tyrosine-protein kinase Blk (Mus musculus) (UniProt P16277); test: Inhibition of recombinant full-length mouse Blk at 1 uM using poly(Glu,Tyr) 4:1 as substrate after 40 mins in presence of [gamma-33P]ATP by scintillation counting method
[11] = target: Ephrin type-B receptor 3 (Homo sapiens) (UniProt P54753); test: Inhibition of recombinant human EPHB3 (599 to 920 residues) at 1 uM using poly(Glu,Tyr) 4:1 as substrate after 40 mins in presence of [gamma-33P]ATP by scintillation counting method
[12] = target: Serine/threonine-protein kinase D2 (Homo sapiens) (UniProt Q9BZL6); test: Inhibition of recombinant full-length human PKD2 at 1 uM using KKLNRTLSVA as substrate after 40 mins in presence of [gamma-33P]ATP by scintillation counting method
[13] = test system: Mitogen-activated protein kinase 14 (Homo sapiens), Q16539 [T106M]; test: Inhibition of recombinant full-length human SAPK2a T106M mutant at 1 uM using myelin basic protein as substrate after 40 mins in presence of [gamma-33P]ATP by scintillation counting method
[14] = test system: PI3-kinase p110-alpha/p85-alpha (Homo sapiens), P27986+P42336 [E542K]; test: Inhibition of recombinant full-length human p110a E542K mutant/p85a at 1 uM using phosphatidylinositol 4,5-bisphosphate as substrate after 40 mins in presence of [gamma-33P]ATP by scintillation counting method; assay type: protein-complex assay
[15] = target: Serine/threonine-protein kinase 3 (Homo sapiens) (UniProt Q13188); test: Inhibition of recombinant human MST2 (2 to end residues) at 1 uM using myelin basic protein as substrate after 40 mins in presence of [gamma-33P]ATP by scintillation counting method
[16] = target: Fibroblast growth factor receptor 4 (Homo sapiens) (UniProt P22455); test: Inhibition of recombinant human FGFR4 (442 to 755 residues) at 1 uM using poly(Glu,Tyr) 4:1 as substrate after 40 mins in presence of [gamma-33P]ATP by scintillation counting method
[17] = target: Serine/threonine-protein kinase 17B (Homo sapiens) (UniProt O94768); test: Inhibition of recombinant full-length human DRAK2 at 1 uM using KKRPQRRYSNVF as substrate after 120 mins in presence of [gamma-33P]ATP by scintillation counting method
[18] = target: Tyrosine-protein kinase Mer (Homo sapiens) (UniProt Q12866); test: Inhibition of recombinant human MER (557 to 882 residues) at 1 uM using GGMEDIYFEFMGGKKK as substrate after 40 mins in presence of [gamma-33P]ATP by scintillation counting method
[19] = target: Beta-adrenergic receptor kinase 1 (Homo sapiens) (UniProt P25098); test: Inhibition of recombinant full-length human GRK2 at 1 uM using casein as substrate after 40 mins in presence of [gamma-33P]ATP by scintillation counting method
[20] = target: MAPK/MAK/MRK overlapping kinase (Homo sapiens) (UniProt Q9UQ07); test: Inhibition of recombinant human MOK (1 to 343 residues) at 1 uM using RSRSRSRSRSRSRSR as substrate after 40 mins in presence of [gamma-33P]ATP by scintillation counting method
[21] = target: Dual specificity mitogen-activated protein kinase kinase 1 (Homo sapiens) (UniProt Q02750); test: Inhibition of recombinant full-length human MEK1 at 1 uM using inactive MAPK2 as substrate after 40 mins in presence of [gamma-33P]ATP by scintillation counting method
[22] = target: Serine/threonine-protein kinase Nek2 (Homo sapiens) (UniProt P51955); test: Inhibition of recombinant full-length human NEK2 at 1 uM using myelin basic protein as substrate after 40 mins in presence of [gamma-33P]ATP by scintillation counting method
[23] = target: Protein kinase C beta type (Homo sapiens) (UniProt P05771); test: Inhibition of recombinant human PKCbeta1 (2 to end residues) at 1 uM using histone H1 as substrate after 40 mins in presence of [gamma-33P]ATP by scintillation counting method
[24] = target: TRAF2 and NCK-interacting protein kinase (Homo sapiens) (UniProt Q9UKE5); test: Inhibition of recombinant human TNIK (1 to 367 residues) at 1 uM using RLGRDKYKTLRQIRQ as substrate after 40 mins in presence of [gamma-33P]ATP by scintillation counting method
Sequence of TRAF2 and NCK-interacting protein kinase (Homo sapiens) (Q9UKE5 whole entry, looked up, the tested form may be a part): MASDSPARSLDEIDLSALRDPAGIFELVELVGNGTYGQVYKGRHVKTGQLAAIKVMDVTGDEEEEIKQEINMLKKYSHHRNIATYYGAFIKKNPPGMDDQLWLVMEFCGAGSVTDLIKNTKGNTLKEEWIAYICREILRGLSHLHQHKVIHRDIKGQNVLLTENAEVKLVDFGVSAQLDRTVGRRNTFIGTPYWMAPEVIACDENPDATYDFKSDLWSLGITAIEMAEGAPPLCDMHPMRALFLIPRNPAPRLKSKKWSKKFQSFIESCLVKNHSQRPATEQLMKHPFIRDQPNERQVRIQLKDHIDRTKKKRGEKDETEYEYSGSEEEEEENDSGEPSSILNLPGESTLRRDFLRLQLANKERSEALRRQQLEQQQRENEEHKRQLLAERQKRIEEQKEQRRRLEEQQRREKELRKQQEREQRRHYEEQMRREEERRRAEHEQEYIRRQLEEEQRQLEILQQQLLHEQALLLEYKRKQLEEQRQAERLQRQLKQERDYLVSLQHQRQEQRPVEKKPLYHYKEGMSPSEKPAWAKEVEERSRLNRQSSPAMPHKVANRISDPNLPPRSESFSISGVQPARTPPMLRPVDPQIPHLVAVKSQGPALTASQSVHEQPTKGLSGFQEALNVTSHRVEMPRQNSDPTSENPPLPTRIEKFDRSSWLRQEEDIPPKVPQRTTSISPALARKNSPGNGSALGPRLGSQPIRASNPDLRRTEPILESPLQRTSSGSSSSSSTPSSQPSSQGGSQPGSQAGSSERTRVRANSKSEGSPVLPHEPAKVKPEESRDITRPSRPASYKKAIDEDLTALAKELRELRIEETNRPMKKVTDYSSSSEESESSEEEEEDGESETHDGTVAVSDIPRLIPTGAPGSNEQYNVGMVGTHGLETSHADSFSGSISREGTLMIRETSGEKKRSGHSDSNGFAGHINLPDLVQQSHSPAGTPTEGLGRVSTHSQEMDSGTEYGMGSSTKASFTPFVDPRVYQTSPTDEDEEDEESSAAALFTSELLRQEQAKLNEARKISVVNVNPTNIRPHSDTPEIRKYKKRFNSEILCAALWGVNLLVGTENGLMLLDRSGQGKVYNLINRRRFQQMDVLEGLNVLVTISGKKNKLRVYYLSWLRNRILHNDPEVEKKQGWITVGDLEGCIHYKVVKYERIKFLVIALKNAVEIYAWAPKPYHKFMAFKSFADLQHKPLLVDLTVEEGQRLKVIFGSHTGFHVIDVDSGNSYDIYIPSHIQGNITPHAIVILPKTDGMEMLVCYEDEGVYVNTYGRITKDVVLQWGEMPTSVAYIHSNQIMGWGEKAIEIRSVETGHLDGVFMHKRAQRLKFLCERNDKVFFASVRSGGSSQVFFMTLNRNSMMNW

Sequence of Protein kinase C beta type (Homo sapiens) (P05771 2-671 limits assumed): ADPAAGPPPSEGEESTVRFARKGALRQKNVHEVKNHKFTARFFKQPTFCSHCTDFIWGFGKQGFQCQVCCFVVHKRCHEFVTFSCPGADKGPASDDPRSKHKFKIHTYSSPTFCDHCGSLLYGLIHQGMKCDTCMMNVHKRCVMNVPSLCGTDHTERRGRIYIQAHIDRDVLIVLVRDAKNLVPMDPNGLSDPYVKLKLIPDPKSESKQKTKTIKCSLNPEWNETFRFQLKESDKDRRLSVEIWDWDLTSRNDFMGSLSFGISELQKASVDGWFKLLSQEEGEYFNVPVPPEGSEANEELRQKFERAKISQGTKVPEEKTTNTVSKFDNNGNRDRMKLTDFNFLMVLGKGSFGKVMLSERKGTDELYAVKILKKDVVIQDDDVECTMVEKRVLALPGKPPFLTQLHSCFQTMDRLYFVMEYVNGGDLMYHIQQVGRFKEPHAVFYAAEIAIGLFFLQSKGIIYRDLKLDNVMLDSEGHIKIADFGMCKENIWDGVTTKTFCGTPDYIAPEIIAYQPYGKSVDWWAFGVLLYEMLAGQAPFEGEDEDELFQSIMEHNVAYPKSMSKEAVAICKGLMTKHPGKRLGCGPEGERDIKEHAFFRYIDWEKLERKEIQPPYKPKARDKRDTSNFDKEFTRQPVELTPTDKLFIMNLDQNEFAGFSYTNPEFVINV
Sequence of Serine/threonine-protein kinase 3 (Homo sapiens) (Q13188 whole entry, the tested form may be a part): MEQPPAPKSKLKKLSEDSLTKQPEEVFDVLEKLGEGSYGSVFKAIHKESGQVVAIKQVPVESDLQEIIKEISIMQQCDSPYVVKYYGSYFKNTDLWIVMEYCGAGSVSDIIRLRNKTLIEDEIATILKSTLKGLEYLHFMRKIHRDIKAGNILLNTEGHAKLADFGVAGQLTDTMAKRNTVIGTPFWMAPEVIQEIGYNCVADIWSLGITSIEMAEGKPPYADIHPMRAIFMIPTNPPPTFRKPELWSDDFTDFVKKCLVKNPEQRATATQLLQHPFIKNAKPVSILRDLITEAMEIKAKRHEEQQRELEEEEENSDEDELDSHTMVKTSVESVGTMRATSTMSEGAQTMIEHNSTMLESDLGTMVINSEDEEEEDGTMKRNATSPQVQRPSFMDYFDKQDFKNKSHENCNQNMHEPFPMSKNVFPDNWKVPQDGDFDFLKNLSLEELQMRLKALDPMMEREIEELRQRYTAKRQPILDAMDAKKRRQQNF
Sequence of MAPK/MAK/MRK overlapping kinase (Homo sapiens) (Q9UQ07 whole entry, the tested form may be a part): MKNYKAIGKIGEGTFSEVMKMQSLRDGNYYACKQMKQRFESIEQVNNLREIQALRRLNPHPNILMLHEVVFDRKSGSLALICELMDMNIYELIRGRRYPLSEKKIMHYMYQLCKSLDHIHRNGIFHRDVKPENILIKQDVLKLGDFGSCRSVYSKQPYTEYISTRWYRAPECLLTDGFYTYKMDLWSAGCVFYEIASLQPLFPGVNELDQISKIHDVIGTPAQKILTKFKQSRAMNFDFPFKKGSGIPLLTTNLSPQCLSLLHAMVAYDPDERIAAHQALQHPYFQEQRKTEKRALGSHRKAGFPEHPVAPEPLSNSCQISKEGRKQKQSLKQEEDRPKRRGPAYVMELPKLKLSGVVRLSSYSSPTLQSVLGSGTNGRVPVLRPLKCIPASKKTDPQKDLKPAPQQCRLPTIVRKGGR
Sequence of Ephrin type-A receptor 3 (Homo sapiens) (P29320 whole entry): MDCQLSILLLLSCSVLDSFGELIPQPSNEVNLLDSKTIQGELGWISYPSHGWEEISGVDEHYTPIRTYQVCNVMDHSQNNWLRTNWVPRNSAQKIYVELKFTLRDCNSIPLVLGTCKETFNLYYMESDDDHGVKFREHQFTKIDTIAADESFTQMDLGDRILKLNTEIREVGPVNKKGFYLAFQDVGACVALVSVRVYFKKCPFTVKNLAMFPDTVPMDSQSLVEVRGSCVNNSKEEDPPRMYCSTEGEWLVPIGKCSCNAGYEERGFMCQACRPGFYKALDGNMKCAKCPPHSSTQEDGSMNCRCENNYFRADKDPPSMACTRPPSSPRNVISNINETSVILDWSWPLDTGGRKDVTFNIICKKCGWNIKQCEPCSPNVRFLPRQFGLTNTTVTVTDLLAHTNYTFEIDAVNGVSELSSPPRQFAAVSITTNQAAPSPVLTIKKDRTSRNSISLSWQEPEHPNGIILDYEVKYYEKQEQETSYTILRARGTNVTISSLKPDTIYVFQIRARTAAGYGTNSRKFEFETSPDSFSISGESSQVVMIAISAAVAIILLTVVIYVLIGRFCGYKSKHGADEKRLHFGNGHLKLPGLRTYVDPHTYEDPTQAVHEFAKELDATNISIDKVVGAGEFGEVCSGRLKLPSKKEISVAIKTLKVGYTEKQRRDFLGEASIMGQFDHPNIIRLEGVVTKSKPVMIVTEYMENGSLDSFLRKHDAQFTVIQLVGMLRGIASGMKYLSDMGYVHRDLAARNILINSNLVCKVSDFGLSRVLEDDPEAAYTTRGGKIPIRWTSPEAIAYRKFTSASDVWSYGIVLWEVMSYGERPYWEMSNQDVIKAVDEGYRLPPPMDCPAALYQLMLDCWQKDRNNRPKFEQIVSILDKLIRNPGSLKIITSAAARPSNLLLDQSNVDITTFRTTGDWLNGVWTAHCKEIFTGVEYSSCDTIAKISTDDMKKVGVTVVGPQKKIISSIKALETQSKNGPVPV
Sequence of Tyrosine-protein kinase Mer (Homo sapiens) (Q12866 whole entry, the tested form may be a part): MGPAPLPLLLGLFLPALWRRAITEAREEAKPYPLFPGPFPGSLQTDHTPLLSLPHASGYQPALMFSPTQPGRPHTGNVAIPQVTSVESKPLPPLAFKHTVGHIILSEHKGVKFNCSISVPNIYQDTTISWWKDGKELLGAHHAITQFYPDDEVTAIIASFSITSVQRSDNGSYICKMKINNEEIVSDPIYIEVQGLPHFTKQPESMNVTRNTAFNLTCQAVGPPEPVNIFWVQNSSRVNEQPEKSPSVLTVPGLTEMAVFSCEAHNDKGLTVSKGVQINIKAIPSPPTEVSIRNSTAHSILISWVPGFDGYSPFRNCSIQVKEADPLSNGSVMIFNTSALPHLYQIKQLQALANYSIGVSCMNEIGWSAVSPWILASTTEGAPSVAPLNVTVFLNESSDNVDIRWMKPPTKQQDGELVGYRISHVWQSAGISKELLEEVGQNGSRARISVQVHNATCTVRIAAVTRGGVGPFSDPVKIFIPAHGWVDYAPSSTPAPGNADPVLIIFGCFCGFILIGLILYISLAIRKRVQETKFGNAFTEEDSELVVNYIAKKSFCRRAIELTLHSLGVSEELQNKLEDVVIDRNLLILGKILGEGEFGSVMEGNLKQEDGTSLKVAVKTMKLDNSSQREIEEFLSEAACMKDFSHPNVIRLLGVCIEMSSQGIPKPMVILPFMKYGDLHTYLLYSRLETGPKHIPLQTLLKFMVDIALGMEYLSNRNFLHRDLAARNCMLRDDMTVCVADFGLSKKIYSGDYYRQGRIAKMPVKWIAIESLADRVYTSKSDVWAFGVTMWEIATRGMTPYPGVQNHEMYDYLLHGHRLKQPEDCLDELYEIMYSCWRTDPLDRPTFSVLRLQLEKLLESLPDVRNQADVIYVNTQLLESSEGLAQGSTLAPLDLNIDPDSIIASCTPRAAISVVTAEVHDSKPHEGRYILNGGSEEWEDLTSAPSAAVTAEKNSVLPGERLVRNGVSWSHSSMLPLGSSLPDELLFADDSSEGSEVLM

CS(=O)(=O)c1ccc(-n2nc(-c3cnc4[nH]ccc4c3)c3c(N)ncnc32)cc1 was tested, and the inhibition [1] was 7%, the inhibition [2] was 4% and the inhibition [3] was -8%. The inhibition [4] was -4%, the inhibition [5] was 3% and the inhibition [6] was -1%. For the same compound, the inhibition [7] was -1%, the inhibition [8] was 2% and the inhibition [9] was -1%. For the same compound, the inhibition [10] was 12%, the inhibition [11] was -2% and the inhibition [12] was 17%. The inhibition [13] was 0%, the inhibition [14] was 7% and the inhibition [15] was 8%. The inhibition [16] was 3%, the inhibition [17] was 7% and the inhibition [18] was -3%. It also gave an inhibition [19] of 5%, an inhibition [20] of 59% and an inhibition [21] of -1%. It also gave an inhibition [22] of 3%, an inhibition [23] of 6% and an inhibition [24] of -9%.

Source: ChEMBL document CHEMBL4190187, “Discovery of pyrazolopyrimidine derivatives as novel inhibitors of ataxia telangiectasia and rad3 related protein (ATR)” (Bioorg Med Chem Lett, 2017)
